{"source": "paper PMC12322260", "about": "“Anticancer activity of triterpene glycosides from the sea star Solaster pacificus” (Scientific Reports, 2025)", "format_in_all_cases": "cell-based, human", "key": {"22Rv1 cells [1]": {"system": "22Rv1 cells", "assay": "Drug combination MTT assay, SynergyFinder ZIP analysis", "settings": "22Rv1, 48 h", "procedure": "(§1) Fig. 5 Effects of CuC1 in combination with taxanes and platinum agents. PC3-DR and 22Rv1 cells were co-treated with cisplatin (Cis), carboplatin (Carbo), docetaxel (Doce), or cabazitaxel (Caba) in combination with CuC1 at the indicated concentrations for 48 h. Cellular viability was evaluated using the MTT assay (number of biological replicates n = 3.) and is represented in the Supplementary Table S2. The cytotoxic effects were further analyzed, and 3D heat maps were constructed using SynergyFinder 3.0 software. The drug effects in combination (synergistic, additive, or antagonistic) were analyzed and visualized using the ZIP algorithm and are indicated by δ-score. δ > 10: Synergistic interactions (dark red area); […]: additive effect; δ < − 10: Antagonistic interactions (dark green area). A ZIP synergy score represents a mean δ overall the concentration range used.\n(§2) The effect of combinational treatment with established chemotherapies was evaluated as previously reported^54. In brief, cells were exposed to individual drugs of their combinations for 48 h, and the viability was measured by MTT assay and was then analyzed using SynergyFinder 3.0 software (https://synergyfinder.fimm.fi) and the ZIP score algorithm. Statistical analysis was conducted automatically by the software using its inbuilt algorythms based on the input data type and size."}, "PC3-DR cells [2]": {"system": "PC3-DR cells", "assay": "Drug combination MTT assay, SynergyFinder ZIP analysis", "settings": "48 h", "procedure": "as §1, §2"}, "PC3 cells": {"system": "PC3 cells", "assay": "MTT cytotoxicity assay", "settings": "PC3, 48 h, mean ± SD", "source_text": "(§3) The cell lines were purchased from ATCC (Manassas, VA, USA) or ECACC (Salisbury, UK). The following cell lines were used: Human prostate cancer cells LNCaP (ATCC; RRID:CVCL_0395), VCaP (ECACC; RRID:CVCL_2235), 22Rv1 (ATCC; RRID:CVCL_1045), PC3 (ATCC; RRID:CVCL_0035), and DU145 (ATCC; RRID:CVCL_0105); human prostate non-cancer cells PNT2 (ATCC; RRID:CVCL_2164) and RWPE-01 (ATCC; RRID:CVCL_3791). Human non-cancer embryonic kidney cells HEK293T (ECACC; RRID:CVCL_0063) and human fibroblast cells MRC-9 (ECACC; RRID:CVCL_2629). The docetaxel-resistant cells PC3-DR were generated by long-term treatment of human prostate cancer PC3 cells with sublethal concentrations of docetaxel as previously described[32] and were provided by Prof. Z. Culig (Innsbruck Medical University, Austria). All cell lines were recently authenticated by a commercial service (Multiplexion GmbH, Heidelberg, Germany) and were cultured as previously described[58],[59]. Cells were kept in culture for a maximum of three months and were routinely examined for bacterial, fungal, and mycoplasma infections."}, "22Rv1 cells [3]": {"system": "22Rv1 cells", "assay": "MTT cytotoxicity assay", "settings": "22Rv1, 48 h, mean ± SD", "source_text": "as §3"}, "DU145 cells": {"system": "DU145 cells", "assay": "MTT cytotoxicity assay", "settings": "DU145, 48 h, mean ± SD", "source_text": "as §3"}, "LNCaP cells": {"system": "LNCaP cells", "assay": "MTT cytotoxicity assay", "settings": "48 h, mean ± SD", "source_text": "as §3"}, "MRC-9 cells": {"system": "MRC-9 cells", "assay": "MTT cytotoxicity assay", "settings": "MRC-9, 48 h, mean ± SD", "source_text": "as §3"}, "HEK293T cells": {"system": "HEK293T cells", "assay": "MTT cytotoxicity assay", "settings": "48 h, mean ± SD", "source_text": "as §3"}, "RWPE-1 cells": {"system": "RWPE-1 cells", "assay": "MTT cytotoxicity assay", "settings": "RWPE-1, 48 h, mean ± SD", "source_text": "as §3"}, "VCaP cells": {"system": "VCaP cells", "assay": "MTT cytotoxicity assay", "settings": "48 h, mean ± SD", "source_text": "as §3"}, "PNT2 cells": {"system": "PNT2 cells", "assay": "MTT cytotoxicity assay", "settings": "PNT2, 48 h, mean ± SD", "source_text": "as §3"}, "PC3-DR cells [4]": {"system": "PC3-DR cells", "assay": "MTT cytotoxicity assay", "settings": "48 h, mean ± SD", "source_text": "as §3"}, "[5]": {"system": "non-cancer PNT2, RWPE-1, HEK293T, MRC-9 cells vs cancer PC3, 22Rv1, DU145, VCaP, LNCaP cells", "assay": "Selectivity index from MTT IC50 values", "settings": "[mean IC50 in non-cancer cells] / [mean IC50 in cancer cells]; Doce IC50 in PNT2 and MRC-9 assumed 500 nM"}}, "note": "“And” between values parts separate entries of the source, which are not always exact repeats. Equal entries are not always repeated."}
{"smiles": "CO[C@H]1C(=O)[C@]2(C)[C@@H](OC)C[C@H]3OC[C@@]3(OC(C)=O)[C@H]2[C@H](OC(=O)c2ccccc2)[C@]2(O)C[C@H](OC(=O)[C@H](O)[C@@H](NC(=O)OC(C)(C)C)c3ccccc3)C(C)=C1C2(C)C", "note": "[Caba, cabazitaxel]", "values": [{"measurement": "Response (% of effect)", "setting": "22Rv1 cells [1]; Caba 0.25 nM alone", "value": 3.714, "unit": "%"}, {"measurement": "Response (% of effect)", "setting": "22Rv1 cells [1]; Caba 0.5 nM alone", "value": "20.36% and 24.57%"}, {"measurement": "Response (% of effect)", "setting": "22Rv1 cells [1]; Caba 1 nM alone", "value": "27.6928% and 30.03%"}, {"measurement": "Response (% of effect)", "setting": "22Rv1 cells [1]; Caba 2 nM alone", "value": "32.86% and 33.2%"}, {"measurement": "Response (% of effect)", "setting": "PC3-DR cells [2]; Caba 12.5 nM alone", "value": "26.4286% and 23.41%"}, {"measurement": "Response (% of effect)", "setting": "PC3-DR cells [2]; Caba 25 nM alone", "value": "28.07% and 33.73%"}, {"measurement": "Response (% of effect)", "setting": "PC3-DR cells [2]; Caba 50 nM alone", "value": "43.53% and 46.12%"}, {"measurement": "Response (% of effect)", "setting": "PC3-DR cells [2]; Caba 100 nM alone", "value": "53.45% and 58.01%"}]}
{"smiles": "N.N.O=C([O-])C1(C(=O)[O-])CCC1.[Pt+2]", "note": "[Carbo, carboplatin]", "values": [{"measurement": "Response (% of effect)", "setting": "22Rv1 cells [1]; Carbo 12.5 μM alone", "value": "0.01% and 4.629%"}, {"measurement": "Response (% of effect)", "setting": "22Rv1 cells [1]; Carbo 25 μM alone", "value": "11.3613% and 13.96%"}, {"measurement": "Response (% of effect)", "setting": "22Rv1 cells [1]; Carbo 50 μM alone", "value": "22.27% and 31.0235%"}, {"measurement": "Response (% of effect)", "setting": "22Rv1 cells [1]; Carbo 100 μM alone", "value": "32.94% and 38.66%"}, {"measurement": "Response (% of effect)", "setting": "PC3-DR cells [2]; Carbo 6.25 μM alone", "value": "0.01% and 9.352%"}, {"measurement": "Response (% of effect)", "setting": "PC3-DR cells [2]; Carbo 12.5 μM alone", "value": "6.12% and 8.386%"}]}
{"smiles": "N.N.[Cl][Pt][Cl]", "note": "[Cis, cisplatin]", "values": [{"measurement": "Response (% of effect)", "setting": "22Rv1 cells [1]; Cis 2.5 μM alone", "value": "17.58% and 11.05%"}, {"measurement": "Response (% of effect)", "setting": "22Rv1 cells [1]; Cis 5 μM alone", "value": "26.89% and 27.91%"}, {"measurement": "Response (% of effect)", "setting": "22Rv1 cells [1]; Cis 10 μM alone", "value": "40.95% and 37.6%"}, {"measurement": "Response (% of effect)", "setting": "PC3-DR cells [2]; Cis 1.25 μM alone", "value": "12.8% and 15.79%"}, {"measurement": "Response (% of effect)", "setting": "PC3-DR cells [2]; Cis 2.5 μM alone", "value": "18.7% and 21.63%"}, {"measurement": "Response (% of effect)", "setting": "PC3-DR cells [2]; Cis 5 μM alone", "value": "29.8412% and 29.49%"}, {"measurement": "Response (% of effect)", "setting": "PC3-DR cells [2]; Cis 10 μM alone", "value": "50.19% and 51.55%"}, {"measurement": "IC50", "setting": "PC3 cells", "value": "34.6 ± 6.62", "unit": "µM"}, {"measurement": "IC50", "setting": "22Rv1 cells [3]", "value": "0.993 ± 0.2", "unit": "µM"}, {"measurement": "IC50", "setting": "DU145 cells", "value": "1.32 ± 0.31", "unit": "µM"}, {"measurement": "IC50", "setting": "LNCaP cells", "value": "2.75 ± 0.39", "unit": "µM"}, {"measurement": "IC50", "setting": "MRC-9 cells", "value": "6.75 ± 2.15", "unit": "µM"}, {"measurement": "IC50", "setting": "HEK293T cells", "value": "6.44 ± 0.65", "unit": "µM"}, {"measurement": "IC50", "setting": "RWPE-1 cells", "value": "9.02 ± 1.52", "unit": "µM"}, {"measurement": "IC50", "setting": "VCaP cells", "value": "5.02 ± 2.73", "unit": "µM"}, {"measurement": "IC50", "setting": "PNT2 cells", "value": "9.41 ± 1.82", "unit": "µM"}, {"measurement": "IC50", "setting": "PC3-DR cells [4]", "value": "6.89 ± 2.29", "unit": "µM"}, {"measurement": "Selectivity index (SI)", "setting": "[5]", "value": 0.88}]}
